Experimental data as given in patent US20230330093A1, “APPLICATION OF NITROGEN-CONTAINING SATURATED HETEROCYCLIC COMPOUND” (SHANGHAI PHARMACEUTICALS HOLDING CO., LTD., priority 2020, published 2023).

Tests used:
[1] = 4-week safety study: toxicokinetics (plasma AUC0-24h, Cmax); assay type: in vivo, cynomolgus monkeys
Procedure: Blood samples were obtained on day1 and day26 at 0, 0.5, 1.5, 3, 5, 7 and 24 h after administration. On each occasion, approximately 1.0 mL of blood was drawn from the vein and collected into EDTA-K2 anticoagulant tubes. The blood samples were put on ice and then centrifuged (3500 rpm, 5 min) at 4° C. to obtain plasma samples, which were kept frozen at about −80° C. until analysis. Toxicokinetics determination of the compound of Formula I was conducted at the Institute of Materia Medica, Chinese Academy of Sciences (Shanghai, China).

[2] = tested on: cynomolgus monkeys; assay: 4-week safety study: hematology and coagulation; assay type: in vivo
Procedure: […] (1) Hematological and coagulation index examination were performed using a Bayer ADVIA2120 (Germany) and a Sysmex CA-1500 (Japan). (2) The serum biochemical examination was assessed using a HITACHI 7080 automated analyzer (Japan) and an Easylyte PLUS electrolyte analyzer (MEDICA, America). (3) The 24-h pooled urine of each animal was collected by a tray under each cage. Urinalysis was carried out using Uritest-300 (China). (4) The 24-h pooled faeces of each monkey were collected by a tray under each cage. Fecal occult blood was detected. (5) ACCESS 2 Chemiluminescence immunoassay was used for myocardial troponin (TropI, non-GLP) test.

[3] = all treated females and high-dose males

Compound: COC(=O)NCCCn1nc([C@@H](C)N(C(=O)[C@H]2CNCCO2)C2CC2)c2ccc(C)nc21 [compound of Formula I]
- accumulation ([1]; after consecutive 28 days of administration): the accumulation was not apparent
- Systemic exposure (plasma AUC0-24h and Cmax of parent compound and main metabolite) vs dose ([1]; dose range of 20 to 450 mg/kg): proportionately greater than the magnitude of the dose increments
- APTT ([2]; Female, 20 mg/kg, d0): 16.7 ± 0.8 s
- Fbg ([2]; Female, 20 mg/kg, d0): 2.0 ± 0.3 g/L
- LYMPH ([2]; Female, 20 mg/kg, d0): 51.3 ± 18.0%
- NEUT ([2]; Female, 20 mg/kg, d0): 42.5 ± 18.8%
- WBC ([2]; Female, 20 mg/kg, d0): 15.3 ± 3.6 ×10^9 · L^−1
- APTT ([2]; Female, 20 mg/kg, d14): 15.9 ± 1.0 s
- Fbg ([2]; Female, 20 mg/kg, d14): 2.9 ± 0.9 g/L
- LYMPH ([2]; Female, 20 mg/kg, d14): 40.8 ± 11.3%
- NEUT ([2]; Female, 20 mg/kg, d14): 52.5 ± 10.4%
- WBC ([2]; Female, 20 mg/kg, d14): 16.0 ± 3.9 ×10^9 · L^−1
- APTT ([2]; Female, 20 mg/kg, d26): 18.3 ± 1.4 s
- Fbg ([2]; Female, 20 mg/kg, d26): 2.8 ± 0.9 g/L
- LYMPH ([2]; Female, 20 mg/kg, d26): 33.1 ± 12.8 %
- NEUT ([2]; Female, 20 mg/kg, d26): 61.4 ± 13.2 %
- WBC ([2]; Female, 20 mg/kg, d26): 19.1 ± 4.0 ×10^9 · L^−1
- APTT ([2]; Female, 20 mg/kg, d 56): 16.4 ± 1.1 s
- Fbg ([2]; Female, 20 mg/kg, d 56): 1.7 ± 0.5 g/L
- LYMPH ([2]; Female, 20 mg/kg, d 56): 53.1 ± 7.4%
- NEUT ([2]; Female, 20 mg/kg, d 56): 38.1 ± 7.1%
- WBC ([2]; Female, 20 mg/kg, d 56): 12.4 ± 1.6 ×10^9 · L^−1
- APTT ([2]; Female, 100 mg/kg, d0): 15.0 ± 1.6 s
- Fbg ([2]; Female, 100 mg/kg, d0): 1.9 ± 0.4 g/L
- LYMPH ([2]; Female, 100 mg/kg, d0): 44.0 ± 16.5%
- NEUT ([2]; Female, 100 mg/kg, d0): 50.5 ± 17.3%
- WBC ([2]; Female, 100 mg/kg, d0): 10.9 ± 2.9 ×10^9 · L^−1
- APTT ([2]; Female, 100 mg/kg, d14): 14.5 ± 0.9 s
- Fbg ([2]; Female, 100 mg/kg, d14): 2.5 ± 0.4 g/L
- LYMPH ([2]; Female, 100 mg/kg, d14): 33.2 ± 4.4 %
- NEUT ([2]; Female, 100 mg/kg, d14): 59.5 ± 5.3 %
- WBC ([2]; Female, 100 mg/kg, d14): 14.0 ± 4.0 ×10^9 · L^−1
- APTT ([2]; Female, 100 mg/kg, d26): 19.7 ± 2.2 s
- Fbg ([2]; Female, 100 mg/kg, d26): 3.5 ± 0.8 g/L
- LYMPH ([2]; Female, 100 mg/kg, d26): 30.0 ± 6.8 %
- NEUT ([2]; Female, 100 mg/kg, d26): 63.2 ± 6.4 %
- WBC ([2]; Female, 100 mg/kg, d26): 15.9 ± 6.2 ×10^9 · L^−1
- APTT ([2]; Female, 100 mg/kg, d 56): 15.8 ± 1.5 s
- Fbg ([2]; Female, 100 mg/kg, d 56): 2.1 ± 0.3 g/L
- LYMPH ([2]; Female, 100 mg/kg, d 56): 48.7 ± 0.6%
- NEUT ([2]; Female, 100 mg/kg, d 56): 45.2 ± 2.3%
- WBC ([2]; Female, 100 mg/kg, d 56): 9.9 ± 1.0 ×10^9 · L^−1
- APTT ([2]; Female, 450 mg/kg, d0): 16.9 ± 1.4 s
- Fbg ([2]; Female, 450 mg/kg, d0): 1.8 ± 0.3 g/L
- LYMPH ([2]; Female, 450 mg/kg, d0): 51.8 ± 12.2%
- NEUT ([2]; Female, 450 mg/kg, d0): 43.3 ± 12.3%
- WBC ([2]; Female, 450 mg/kg, d0): 14.4 ± 1.7 ×10^9 · L^−1
- APTT ([2]; Female, 450 mg/kg, d14): 18.6 ± 0.8 s
- Fbg ([2]; Female, 450 mg/kg, d14): 3.9 ± 0.8 g/L
- LYMPH ([2]; Female, 450 mg/kg, d14): 30.1 ± 14.3 %
- NEUT ([2]; Female, 450 mg/kg, d14): 63.5 ± 15.2 %
- WBC ([2]; Female, 450 mg/kg, d14): 16.9 ± 7.8 ×10^9 · L^−1
- APTT ([2]; Female, 450 mg/kg, d26): 20.1 ± 3.1 s
- Fbg ([2]; Female, 450 mg/kg, d26): 4.2 ± 0.7 g/L
- LYMPH ([2]; Female, 450 mg/kg, d26): 26.9 ± 8.9 %
- NEUT ([2]; Female, 450 mg/kg, d26): 67.5 ± 9.2 %
- WBC ([2]; Female, 450 mg/kg, d26): 18.1 ± 3.7 ×10^9 · L^−1
- APTT ([2]; Female, 450 mg/kg, d 56): 18.0 ± 3.5 s
- Fbg ([2]; Female, 450 mg/kg, d 56): 1.4 ± 0.0 g/L
- LYMPH ([2]; Female, 450 mg/kg, d 56): 53.3 ± 0.3%
- NEUT ([2]; Female, 450 mg/kg, d 56): 42.3 ± 0.6%
- WBC ([2]; Female, 450 mg/kg, d 56): 14.0 ± 4.9 ×10^9 · L^−1
- APTT ([2]; Male, 20 mg/kg, d0): 16.4 ± 1.1 s
- Fbg ([2]; Male, 20 mg/kg, d0): 2.1 ± 0.6 g/L
- LYMPH ([2]; Male, 20 mg/kg, d0): 55.3 ± 14.6%
- NEUT ([2]; Male, 20 mg/kg, d0): 39.9 ± 14.6%
- WBC ([2]; Male, 20 mg/kg, d0): 13.4 ± 2.5 ×10^9 · L^−1
- APTT ([2]; Male, 20 mg/kg, d14): 17.8 ± 2.7 s
- Fbg ([2]; Male, 20 mg/kg, d14): 3.2 ± 0.8 g/L
- LYMPH ([2]; Male, 20 mg/kg, d14): 51.1 ± 19.6%
- NEUT ([2]; Male, 20 mg/kg, d14): 43.1 ± 20.4%
- WBC ([2]; Male, 20 mg/kg, d14): 17.7 ± 9.3 ×10^9 · L^−1
- APTT ([2]; Male, 20 mg/kg, d26): 19.5 ± 2.4 s
- Fbg ([2]; Male, 20 mg/kg, d26): 2.2 ± 0.4 g/L
- LYMPH ([2]; Male, 20 mg/kg, d26): 59.5 ± 11.9%
- NEUT ([2]; Male, 20 mg/kg, d26): 35.1 ± 12.4%
- WBC ([2]; Male, 20 mg/kg, d26): 13.8 ± 6.5 ×10^9 · L^−1
- APTT ([2]; Male, 20 mg/kg, d 56): 21.3 ± 4.0 s
- Fbg ([2]; Male, 20 mg/kg, d 56): 3.1 ± 1.4 g/L
- LYMPH ([2]; Male, 20 mg/kg, d 56): 53.3 ± 14.3%
- NEUT ([2]; Male, 20 mg/kg, d 56): 38.5 ± 12.6%
- WBC ([2]; Male, 20 mg/kg, d 56): 20.1 ± 4.2 ×10^9 · L^−1
- APTT ([2]; Male, 100 mg/kg, d0): 16.6 ± 1.8 s
- Fbg ([2]; Male, 100 mg/kg, d0): 2.2 ± 0.3 g/L
- LYMPH ([2]; Male, 100 mg/kg, d0): 61.5 ± 16.2%
- NEUT ([2]; Male, 100 mg/kg, d0): 32.6 ± 18.2%
- WBC ([2]; Male, 100 mg/kg, d0): 12.6 ± 2.3 ×10^9 · L^−1
- APTT ([2]; Male, 100 mg/kg, d14): 15.5 ± 0.5 s
- Fbg ([2]; Male, 100 mg/kg, d14): 2.8 ± 0.7 g/L
- LYMPH ([2]; Male, 100 mg/kg, d14): 48.0 ± 12.2%
- NEUT ([2]; Male, 100 mg/kg, d14): 45.2 ± 12.2%
- WBC ([2]; Male, 100 mg/kg, d14): 15.6 ± 6.6 ×10^9 · L^−1
- APTT ([2]; Male, 100 mg/kg, d26): 22.5 ± 2.5 s
- Fbg ([2]; Male, 100 mg/kg, d26): 4.1 ± 1.2 g/L
- LYMPH ([2]; Male, 100 mg/kg, d26): 32.1 ± 9.4%
- NEUT ([2]; Male, 100 mg/kg, d26): 60.8 ± 10.5%
- WBC ([2]; Male, 100 mg/kg, d26): 20.3 ± 2.9 ×10^9 · L^−1
- APTT ([2]; Male, 100 mg/kg, d 56): 17.7 ± 1.0 s
- Fbg ([2]; Male, 100 mg/kg, d 56): 1.7 ± 0.3 g/L
- LYMPH ([2]; Male, 100 mg/kg, d 56): 52.7 ± 9.0%
- NEUT ([2]; Male, 100 mg/kg, d 56): 42.5 ± 11.2%
- WBC ([2]; Male, 100 mg/kg, d 56): 14.1 ± 0.2 ×10^9 · L^−1
- APTT ([2]; Male, 450 mg/kg, d0): 17.0 ± 2.1 s
- Fbg ([2]; Male, 450 mg/kg, d0): 2.2 ± 0.7 g/L
- LYMPH ([2]; Male, 450 mg/kg, d0): 48.6 ± 16.8%
- NEUT ([2]; Male, 450 mg/kg, d0): 46.9 ± 17.3%
- WBC ([2]; Male, 450 mg/kg, d0): 12.0 ± 3.8 ×10^9 · L^−1
- APTT ([2]; Male, 450 mg/kg, d14): 16.1 ± 0.8 s
- Fbg ([2]; Male, 450 mg/kg, d14): 3.1 ± 1.0 g/L
- LYMPH ([2]; Male, 450 mg/kg, d14): 35.6 ± 15.5%
- NEUT ([2]; Male, 450 mg/kg, d14): 59.2 ± 16.0%
- WBC ([2]; Male, 450 mg/kg, d14): 16.7 ± 6.4 ×10^9 · L^−1
- APTT ([2]; Male, 450 mg/kg, d26): 20.0 ± 3.3 s
- Fbg ([2]; Male, 450 mg/kg, d26): 4.1 ± 0.6 g/L
- LYMPH ([2]; Male, 450 mg/kg, d26): 26.5 ± 12.0 %
- NEUT ([2]; Male, 450 mg/kg, d26): 68.6 ± 12.3 %
- WBC ([2]; Male, 450 mg/kg, d26): 18.6 ± 5.9 ×10^9 · L^−1
- APTT ([2]; Male, 450 mg/kg, d 56): 19.9 ± 0.3 s
- Fbg ([2]; Male, 450 mg/kg, d 56): 1.8 ± 0.0 g/L
- LYMPH ([2]; Male, 450 mg/kg, d 56): 59.8 ± 22.8%
- NEUT ([2]; Male, 450 mg/kg, d 56): 36.7 ± 23.2%
- WBC ([2]; Male, 450 mg/kg, d 56): 14.6 ± 0.8 ×10^9 · L^−1
- LYMPH % [2, 3]: decreased
- NEUT % [2, 3]: Increased
- APTT ([2]; high-dose females): increases
- Fbg ([2]; mid- and high-dose animals): increases
